The values below come from US10100045B2, “3-aryl-2H-pyrazolo[4,3-b]pyridine compounds and their use as AMPA receptor modulators” (Janssen Pharmaceutica NV, priority 2016, dated 2018).

What is called pIC50 is the IC50 on a negative log10 scale, so that one unit is a factor of ten. The term IC50 denotes the concentration that inhibits the measured activity by half.

In this assay the target is GluA1o-γ8 (GRIA1o-CACNG8 fusion construct; TARP γ8 dependent AMPA receptor) (Homo sapiens (Human), UniProt P42261+Q8WXS5). Nature of the assay: Calcium flux assay (FLIPR), inhibition of glutamate response of GluA1o-γ8 channel. Format: cell-based. The conditions noted are these: HEK293 cells stably expressing GRIA1o-CACNG8 fusion; 15 μM glutamate; negative log of the IC50 in molar. The source says: This assay was used to test compounds for their ability to inhibit TARP γ8 dependent AMPA receptor activity. The AMPA receptor is a non-selective cation channel activated by glutamate. Ionotropic glutamate receptors normally desensitize too rapidly to allow detectable calcium influx in a FLIPR assay (Strange et al. (2006). “Functional characterisation of homomeric ionotropic glutamate receptors GluR1-GluR6 in a fluorescence-based high throughput screening assay.” Comb Chem High Throughput Screen 9(2): 147-158). But, this desensitization is incomplete, and a substantial steady-state current remains in the sustained presence of glutamate (Cho et al. (2007). “Two families of TARP isoforms that have distinct effects on the kinetic properties of AMPA receptors and synaptic currents.” Neuron 55(6): 890-904). An in vitro assay was used to determine the potency of test compounds as inhibitors of the glutamate response of the channel formed by GluA1o-γ8. To ensure a 1:1 stoichiometry of GluA1o and γ8 subunits in the expressed channel, a fusion of the cDNAs for GRIA1o and CACNG8 was used. Following Shi et al (2009) “The stoichiometry of AMPA receptors and TARPs varies by neuronal cell type.” Neuron 62(5): 633-640), the C-terminus of the cDNA for GRIA1o was fused to the N-terminus of the cDNA for γ8. The linker sequence was QQQQQQQQQQEFAT. Channels expressed with this construct appear to have similar properties to channels formed by co-expression of GRIA1o with an excess of CACNG8 (Shi et al. 2009). A clonal cell line in HEK293 cells stably expressing this construct, with a geneticin selection marker, was generated for use in this assay.
GluA1o-γ8 (GRIA1o-CACNG8 fusion construct; TARP γ8 dependent AMPA receptor), sequence (P42261 other isoform, or with tags, fused parts or gaps): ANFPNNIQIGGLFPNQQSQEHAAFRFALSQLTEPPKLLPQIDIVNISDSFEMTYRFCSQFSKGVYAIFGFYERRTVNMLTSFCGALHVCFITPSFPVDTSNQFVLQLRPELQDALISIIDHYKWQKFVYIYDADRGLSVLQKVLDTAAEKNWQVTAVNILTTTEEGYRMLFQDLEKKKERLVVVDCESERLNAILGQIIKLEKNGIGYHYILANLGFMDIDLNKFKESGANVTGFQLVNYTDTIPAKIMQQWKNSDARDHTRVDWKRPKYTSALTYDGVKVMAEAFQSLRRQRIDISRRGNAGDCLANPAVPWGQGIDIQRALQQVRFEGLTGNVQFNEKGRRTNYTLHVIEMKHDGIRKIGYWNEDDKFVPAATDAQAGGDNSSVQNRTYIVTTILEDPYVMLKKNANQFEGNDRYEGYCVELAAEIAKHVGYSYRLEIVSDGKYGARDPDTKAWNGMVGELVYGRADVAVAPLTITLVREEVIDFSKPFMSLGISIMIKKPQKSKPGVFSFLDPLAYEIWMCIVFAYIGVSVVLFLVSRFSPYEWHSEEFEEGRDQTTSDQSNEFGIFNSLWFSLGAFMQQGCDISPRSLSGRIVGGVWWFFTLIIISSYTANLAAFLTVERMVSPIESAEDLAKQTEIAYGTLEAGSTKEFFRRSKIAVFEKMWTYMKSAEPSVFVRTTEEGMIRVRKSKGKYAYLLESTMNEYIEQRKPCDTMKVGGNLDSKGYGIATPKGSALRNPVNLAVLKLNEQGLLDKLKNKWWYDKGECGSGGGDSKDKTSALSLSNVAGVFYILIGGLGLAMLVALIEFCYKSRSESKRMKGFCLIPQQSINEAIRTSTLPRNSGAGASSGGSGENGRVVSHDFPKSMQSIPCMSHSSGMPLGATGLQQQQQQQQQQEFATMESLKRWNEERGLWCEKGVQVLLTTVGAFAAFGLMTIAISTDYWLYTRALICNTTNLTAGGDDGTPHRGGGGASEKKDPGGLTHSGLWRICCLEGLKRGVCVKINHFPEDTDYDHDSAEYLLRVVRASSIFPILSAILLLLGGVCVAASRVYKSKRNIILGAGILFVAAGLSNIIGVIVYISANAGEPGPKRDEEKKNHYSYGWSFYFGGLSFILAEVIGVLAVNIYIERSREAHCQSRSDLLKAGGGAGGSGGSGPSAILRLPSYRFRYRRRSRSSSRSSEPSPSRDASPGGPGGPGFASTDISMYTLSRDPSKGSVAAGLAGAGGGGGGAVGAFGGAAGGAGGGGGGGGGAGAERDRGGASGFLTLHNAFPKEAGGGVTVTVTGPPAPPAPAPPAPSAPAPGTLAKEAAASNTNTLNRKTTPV
Cell expressing the GRIA1o-CACNG8 fusion construct were grown in a monolayer in 96- or 384-well microtiter plates. They were washed with assay buffer (135 mM NaCl, 4 mM KCl, 3 mM CaCl2, 1 mM MgCl2, 5 mM glucose, 10 mM HEPES, pH 7.4, 300 mOs) using a Biotek EL405 plate washer. The cells were then loaded with a calcium-sensitive dye (Calcium-5 or Calcium-6, Molecular Devices) and the test compounds at a range of concentrations. Calcium flux following the addition of 15 μM glutamate was monitored using a Molecular Devices FLIPR Tetra. The fluorescence in each well was normalized to the fluorescence of negative and positive control wells. The negative control wells had no added compounds, and the positive control wells had been incubated with 10 μM CP465022 (a non-subtype-selective AMPA receptor antagonist) (Lazzaro et al. (2002). “Functional characterization of CP-465,022, a selective, noncompetitive AMPA receptor antagonist.” Neuropharmacology 42(2): 143-153). The responses to glutamate as functions of the test compound concentrations were fitted to a four-parameter logistic function. The fitted parameter corresponding to the midpoint was taken to be the potency of inhibition of the compound. The data in Table 3 below illustrates the observed potentcy for the compounds described herein. pIC50 refers to the negative log of the IC50 in molar.
A general note: A change in cytosolic calcium serves as a functional read-out for many receptors and channels.
Consider `Cn1nc2ccc(C(F)(F)F)nc2c1-c1ccc2[nH]c(=O)[nH]c2c1` [Example 1, 5-(2-Methyl-5-(trifluoromethyl)-2H-pyrazolo[4,3-b]pyridin-3-yl)-1,3-dihydro-2H-benzo[d]imidazol-2-one], for which the pIC50 is listed as 6.5. On the same count and under the same terms, then `Cc1cc(-c2c3nc(C(F)(F)F)ccc3nn2C)cc2c1NC(=O)C2` [Example 2, 7-Methyl-5-(2-methyl-5-(trifluoromethyl)-2H-pyrazolo[4,3-b]pyridin-3-yl)indolin-2-one], with 7.9; and `Cc1cc(-c2c3nc(C(F)(F)F)ccc3nn2C(F)F)cc2c1NC(=O)C2` [Example 3, 5-[2-(Difluoromethyl)-5-(trifluoromethyl)pyrazolo[4,3-b]pyridin-3-yl]-7-methyl-indolin-2-one], with 9.0; and `CCn1nc2ccc(C(F)(F)F)nc2c1-c1ccc2[nH]c(=O)[nH]c2c1` [Example 4, 5-(2-Ethyl-5-(trifluoromethyl)-2H-pyrazolo[4,3-b]pyridin-3-yl)-1,3-dihydro-2H-benzo[d]imidazol-2-one], with 7.0. Still for that read-out and setting: for `CC(C)n1nc2ccc(C(F)(F)F)nc2c1-c1ccc2[nH]c(=O)[nH]c2c1` [Example 5, 5-(2-Isopropyl-5-(trifluoromethyl)-2H-pyrazolo[4,3-b]pyridin-3-yl)-1,3-dihydro-2H-benzo[d]imidazol-2-one] the value was 7.6. Still for that read-out and setting: then `O=c1[nH]c2ccc(-c3c4nc(C(F)(F)F)ccc4nn3CC3CCC3)cc2[nH]1` [Example 6, 5-(2-(Cyclobutylmethyl)-5-(trifluoromethyl)-2H-pyrazolo[4,3-b]pyridin-3-yl)-1,3-dihydro-2H-benzo[d]imidazol-2-one], with 6.9. Regarding `O=c1[nH]c2ccc(-c3c4nc(C(F)(F)F)ccc4nn3C3CCCC3)cc2[nH]1` [Example 7, 5-(2-Cyclopentyl-5-(trifluoromethyl)-2H-pyrazolo[4,3-b]pyridin-3-yl)-1,3-dihydro-2H-benzo[d]imidazol-2-one], the pIC50 came out at 7.8. Still for that read-out and setting: then `Cc1cc(-c2c3nc(C(F)(F)F)ccc3nn2C2CCCC2)cc2cn[nH]c12` [Example 8, 2-Cyclopentyl-3-(7-methyl-1H-indazol-5-yl)-5-(trifluoromethyl)-2H-pyrazolo[4,3-b]pyridine], with 9.9; and `O=c1[nH]c2ccc(-c3c4nc(C(F)(F)F)ccc4nn3-c3ccccc3)cc2[nH]1` [Example 9, 5-(2-Phenyl-5-(trifluoromethyl)-2H-pyrazolo[4,3-b]pyridin-3-yl)-1,3-dihydro-2H-benzo[d]imidazol-2-one], with 8.8; and `O=C1Cc2cc(-c3c4nc(C(F)(F)F)ccc4nn3-c3ccccc3)ccc2N1` [Example 10, 5-(2-Phenyl-5-(trifluoromethyl)-2H-pyrazolo[4,3-b]pyridin-3-yl)indolin-2-one], with 8.2. With `FC(F)(F)c1ccc2nn(-c3ccccc3)c(-c3ccc4[nH]ncc4c3)c2n1` [Example 11, 3-(1H-Indazol-5-yl)-2-phenyl-5-(trifluoromethyl)-2H-pyrazolo[4,3-b]pyridine], the negative logarithm of the IC50 (pIC50) was 8.5. Take `FC(F)(F)c1ccc2nn(C3CCC3)c(-c3ccc4[nH]ncc4c3)c2n1` [Example 12, 2-Cyclobutyl-3-(1H-indazol-5-yl)-5-(trifluoromethyl)-2H-pyrazolo[4,3-b]pyridine]: the pIC50 is on record as 9.2.

Regarding `COCCn1nc2ccc(C(F)(F)F)nc2c1-c1ccc2[nH]ncc2c1` [Example 13, 3-(1H-Indazol-5-yl)-2-(2-methoxyethyl)-5-(trifluoromethyl)-2H-pyrazolo[4,3-b]pyridine], the pIC50 is 6.1. The same measure, in the same setting: then `FC(F)(F)c1ccc2nn(-c3ccccn3)c(-c3ccc4[nH]ncc4c3)c2n1` [Example 14, 3-(1H-Indazol-5-yl)-2-(pyridin-2-yl)-5-(trifluoromethyl)-2H-pyrazolo[4,3-b]pyridine], with 6.9; and `Cc1cc(-c2c3nc(C(F)(F)F)ccc3nn2C)cc2cn[nH]c12` [Example 15, 2-Methyl-3-(7-methyl-1H-indazol-5-yl)-5-(trifluoromethyl)-2H-pyrazolo[4,3-b]pyridine], with 9.0. Same read-out and setting: then `Cn1nc2ccc(C(F)(F)F)nc2c1-c1cc(Cl)c2[nH]ncc2c1` [Example 16, 3-(7-Chloro-1H-indazol-5-yl)-2-methyl-5-(trifluoromethyl)-2H-pyrazolo[4,3-b]pyridine], with 9.5; and `CCn1nc2ccc(C(F)(F)F)nc2c1-c1cc(C)c2c(c1)CC(=O)N2` [Example 17, 5-(2-Ethyl-5-(trifluoromethyl)-2H-pyrazolo[4,3-b]pyridin-3-yl)-7-methylindolin-2-one], with 8.3; and `CCn1nc2ccc(C(F)(F)F)nc2c1-c1cc(Cl)c2c(c1)CC(=O)N2` [Example 18, 7-Chloro-5-(2-ethyl-5-(trifluoromethyl)-2H-pyrazolo[4,3-b]pyridin-3-yl)indolin-2-one], with 8.6. Take `CCn1nc2ccc(C(F)(F)F)nc2c1-c1cc(C)c2[nH]ncc2c1` [Example 19, 2-Ethyl-3-(7-methyl-1H-indazol-5-yl)-5-(trifluoromethyl)-2H-pyrazolo[4,3-b]pyridine]: the IC50 was 0.794 nM. For `CCn1nc2ccc(C(F)(F)F)nc2c1-c1cc(Cl)c2[nH]ncc2c1` [Example 20, 3-(7-Chloro-1H-indazol-5-yl)-2-ethyl-5-(trifluoromethyl)-2H-pyrazolo[4,3-b]pyridine], the pIC50 was found to be 9.4. In the case of `Cc1cc(-c2c3nc(C(F)(F)F)ccc3nn2C(C)C)cc2c1NC(=O)C2` [Example 21, 5-(2-Isopropyl-5-(trifluoromethyl)-2H-pyrazolo[4,3-b]pyridin-3-yl)-7-methylindolin-2-one], the pIC50 is reported as 9.4. Regarding `CC(C)n1nc2ccc(C(F)(F)F)nc2c1-c1cc(Cl)c2c(c1)CC(=O)N2` [Example 22, 7-Chloro-5-(2-isopropyl-5-(trifluoromethyl)-2H-pyrazolo[4,3-b]pyridin-3-yl)indolin-2-one], the pIC50 stood at 9.6. `Cc1cc(-c2c3nc(C(F)(F)F)ccc3nn2C(C)C)cc2cn[nH]c12` [Example 23, 2-Isopropyl-3-(7-methyl-1H-indazol-5-yl)-5-(trifluoromethyl)-2H-pyrazolo[4,3-b]pyridine]: the negative-log IC50 (pIC50) was 9.6. Consider `CC(C)n1nc2ccc(C(F)(F)F)nc2c1-c1cc(Cl)c2[nH]ncc2c1` [Example 24, 3-(7-Chloro-1H-indazol-5-yl)-2-isopropyl-5-(trifluoromethyl)-2H-pyrazolo[4,3-b]pyridine], for which the pIC50 was found to be 10.2. Take `Cc1cc(-c2c3nc(C(F)(F)F)ccc3nn2C2CCC2)cc2c1NC(=O)C2` [Example 25, 5-(2-Cyclobutyl-5-(trifluoromethyl)-2H-pyrazolo[4,3-b]pyridin-3-yl)-7-methylindolin-2-one]: the pIC50 is on record as 10.3. With `O=C1Cc2cc(-c3c4nc(C(F)(F)F)ccc4nn3C3CCC3)cc(Cl)c2N1` [Example 26, 7-Chloro-5-(2-cyclobutyl-5-(trifluoromethyl)-2H-pyrazolo[4,3-b]pyridin-3-yl)indolin-2-one], the pIC50 was found to be 10.5. Still for that read-out and setting: for `Cc1cc(-c2c3nc(C(F)(F)F)ccc3nn2C2CCC2)cc2cn[nH]c12` [Example 27, 2-Cyclobutyl-3-(7-methyl-1H-indazol-5-yl)-5-(trifluoromethyl)-2H-pyrazolo[4,3-b]pyridine] the value was 10.7. Still for that read-out and setting: for `FC(F)(F)c1ccc2nn(C3CCC3)c(-c3cc(Cl)c4[nH]ncc4c3)c2n1` [Example 28, 3-(7-Chloro-1H-indazol-5-yl)-2-cyclobutyl-5-(trifluoromethyl)-2H-pyrazolo[4,3-b]pyridine] the value was 10.7; for `O=C1Cc2cc(-c3c4nc(C(F)(F)F)ccc4nn3C(F)F)cc(Cl)c2N1` [Example 29, 7-Chloro-5-(2-(difluoromethyl)-5-(trifluoromethyl)-2H-pyrazolo[4,3-b]pyridin-3-yl)indolin-2-one], 8.6.
